Changes are numbered by the printed parent chain. “Also recorded” adds a separate entry of the source.
Experiments:
[1] = target: T1, human CCK-B/gastrin receptor 325L→E mutant (Homo sapiens, UniProt P32239, L325E); assay: 125I-CCK-8 competition binding, COS-7 cells expressing constitutively active mutant; conditions: read-out: 325L→E Mutant Ki(nM), 125I CCK-8 binding affinity
T1 construct: expressed in transfected cells; host or cells: COS-7
T1 sequence (P32239 1-447 L325E): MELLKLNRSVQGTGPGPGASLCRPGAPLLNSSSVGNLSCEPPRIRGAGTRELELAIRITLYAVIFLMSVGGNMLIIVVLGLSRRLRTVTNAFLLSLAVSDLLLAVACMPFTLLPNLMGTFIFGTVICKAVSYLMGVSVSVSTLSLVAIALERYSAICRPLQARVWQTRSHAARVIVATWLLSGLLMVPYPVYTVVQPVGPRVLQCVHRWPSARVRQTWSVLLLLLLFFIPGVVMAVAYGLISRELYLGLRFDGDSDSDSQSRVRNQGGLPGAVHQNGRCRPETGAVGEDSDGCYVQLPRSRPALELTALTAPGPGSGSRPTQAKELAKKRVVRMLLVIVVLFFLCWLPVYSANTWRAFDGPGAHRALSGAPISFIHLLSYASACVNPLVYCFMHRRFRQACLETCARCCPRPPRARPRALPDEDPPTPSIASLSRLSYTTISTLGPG
Protocol: (§1) The binding of a ligand to a CCK receptor, e.g., the CCK-A or the CCK-B/gastrin receptor, can be measured according to the following example. In this example, the binding affinity of a ligand to the human CCK-B/gastrin receptor is measured.
Twenty-four hours after transfection cells were split into 24-well dishes (2×10^4 cells/well) (Costar). After an additional 24 hours, competition binding experiments were performed in Hank's buffer supplemented with 25 mM phenylmethylsulfonyl fluoride (PMSF). […] Equilibrium binding occurred after incubation for 80 min. at 37° C. Cell monolayers were then washed three times, hydrolyzed in 1 N NaOH, and the amount of radioactivity to the receptor was quantified. […] All binding experiments were repeated three to five times.
(§2) The competition data were analyzed using computer software which is specifically designed for the purpose of radioligand binding assays (Inplot 4.0, GraphPad, San Diego, Calif.).

[2] = target: T2, human CCK-B/gastrin receptor (wild-type) (Homo sapiens, UniProt P32239); assay: Total inositol phosphate production, COS-7 cells expressing wild-type receptor; assay type: cell-based; conditions: for IC50: 95% C.I. in brackets, read-out: Wild-type receptor IC50(nM) 95% C.I., signaling potency
T2 construct: expressed in transfected cells; host or cells: COS-7
T2 sequence (P32239 1-447): T1 sequence (P32239 1-447 L325E) with E325L

[3] = target: T1, human CCK-B/gastrin receptor 325L→E mutant; assay: Total inositol phosphate production, COS-7 cells expressing constitutively active mutant; assay type: cell-based; conditions: for intrinsic activity / functional classification: constitutively active 325L→E mutant; for IC50: 325L→E mutant, 95% C.I. in brackets, read-out: 325L→E Mutant IC50(nM) 95% C.I., signaling potency
[4] = target: T2, human CCK-B/gastrin receptor (wild-type); assay: 125I-CCK-8 competition binding, COS-7 cells expressing wild-type receptor; conditions: for Ratio (Wild-type/Mutant) of Ki: binding affinities; for Ki: wild-type receptor, read-out: Wild-type receptor Ki(nM), 125I CCK-8 binding affinity
Protocol: as §1
Twenty-four hours after transfection cells were split into 24-well dishes (2×10^4 cells/well) (Costar). After an additional 24 hours, competition binding experiments were performed in Hank's buffer supplemented with 25 mM phenylmethylsulfonyl fluoride (PMSF). […] Equilibrium binding occurred after incubation for 80 min. at 37° C. Cell monolayers were then washed three times, hydrolyzed in 1 N NaOH, and the amount of radioactivity to the receptor was quantified.
as §2

rat CCK-A = conditions: single experiment
Xenopus CCK receptor = Xenopus CCK receptor (Xenopus laevis, UniProt P70031); conditions: single experiment
Protocol: COS-7 cells transfected with receptor cDNA-pcDNAI were cultured in inositol-free, serum-free Dulbecco's modified Eagle's medium (DMEM, GIBCO), supplemented with 3 μCi/ml ^3 H-myo-inositol (NEN, 45-80 Ci/mmol), for 18 hours prior to analysis. The cells were then washed twice with DMEM/10 mM LiCl2 and twice with phosphate-buffered saline/10 mM LiCl2. After stimulation with putative agonists in phosphate-buffered saline 10/mM LiCl2 for 30 minutes at 37° C., cells were scraped in ice-cold methanol. […] The upper phase was analyzed for inositol phosphates by strong anion exchange chromatography, using Dowex 1-X8 columns (BIORAD) and differential elution with water/60 mM ammonium fornate/2 M ammonium fornate. Eluted radioactivity was measured by liquid scintillation counting, and inositol phosphate content was expressed as a percentage of total ^3H-radioactivity applied to the columns.
In FIG. 11, basal levels of inositol phosphate production were measured for human CCK-A hCCK-A), human CCK-B (hCCK-B), dog CCK-B (dCCK-B), mouse CCK-B (mCCK-B), and the mastomys CCK receptor (FIG. 11, part A), and expressed relative to the basal level of hCCK-B.
Single experiments were also performed for the rat CCK-B/gastrin receptor and for the related Xenopus CCK receptor (Table 2).

[5] = target: human wild-type CCK-B receptor (Homo sapiens, UniProt P32239); conditions: 10^-7 M
Protocol: Measurement of [Ca^2+]: Forty-eight hours after transfection with hCCKB-pcDNAI, COS-7 cells were loaded with the Ca^2+ fluorophore fura-2 in modified Krebs-Ringer bicarbonate buffer. […] Extracellular calcium can be chelated with EGTA (2.5 mM) to confirm that a gastrin-induced increase in [Ca^2+] originates primarily from intracellular [Ca^2+] pools.

[6] = target: T3, mutant human CCK-A receptor pMHA35 (Homo sapiens, UniProt P32238, E138Q); assay: Intrinsic activity at mutant CCK-A receptor pMHA35 (138-ERY-140 to QRY); assay type: cell-based; conditions: basal signaling not increased
T3 construct: expressed in transfected cells; host or cells: COS-7 (inferred from the general inositol phosphate method)
T3 sequence (P32238 1-428 E138Q): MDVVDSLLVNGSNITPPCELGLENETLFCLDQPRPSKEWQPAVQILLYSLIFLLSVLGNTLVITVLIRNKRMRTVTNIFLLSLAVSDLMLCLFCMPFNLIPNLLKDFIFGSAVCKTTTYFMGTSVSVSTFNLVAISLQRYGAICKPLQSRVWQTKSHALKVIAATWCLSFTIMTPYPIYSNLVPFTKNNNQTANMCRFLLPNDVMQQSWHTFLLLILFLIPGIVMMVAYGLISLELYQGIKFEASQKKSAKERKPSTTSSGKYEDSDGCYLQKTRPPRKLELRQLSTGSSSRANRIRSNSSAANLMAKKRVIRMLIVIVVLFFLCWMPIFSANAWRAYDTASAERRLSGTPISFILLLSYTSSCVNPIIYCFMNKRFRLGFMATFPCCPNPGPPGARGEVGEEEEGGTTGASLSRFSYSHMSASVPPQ
Source text: An example is given of a mutant human CCK-A receptor that enhances the intrinsic activity of the partial ‘peptoid’ agonist PD 135,158, yet causes no apparent increase in agonist-independent basal receptor activity, is the mutant CCK-A receptor pMHA35. pMHA35 was made by replacing amino acids 138-ERY-140 of the human wild-type CCK-A receptor with QRY in the vector pcDNAI. (See FIG. 2 for an illustration of the wild-type CCK-A receptor amino acid sequence.)
This method, based on alignment, was employed to construct a CCK-A mutant receptor. A multiple alignment map was made which included the human and rat CCK-A sequences, the mastomys, rat, human, and canine CCK-B/gastrin receptor, and a Xenopus CCK-A/CCK-B intermediate receptor (CCK-XL; FIG. 2). Based on this map, conserved amino acids 138-ERY-140 of the CCK-A receptor were replaced with amino acids QRY, based on a known constitutively active rhodopsin mutant with enhanced transducin activation (Arnis et al., J. Biol. Chem., 269:23879-81, 1994). The altered amino acid residues are positioned in transmembrane domain III and flank the second intracellular loop.

Sequence of Xenopus CCK receptor (P70031 whole entry): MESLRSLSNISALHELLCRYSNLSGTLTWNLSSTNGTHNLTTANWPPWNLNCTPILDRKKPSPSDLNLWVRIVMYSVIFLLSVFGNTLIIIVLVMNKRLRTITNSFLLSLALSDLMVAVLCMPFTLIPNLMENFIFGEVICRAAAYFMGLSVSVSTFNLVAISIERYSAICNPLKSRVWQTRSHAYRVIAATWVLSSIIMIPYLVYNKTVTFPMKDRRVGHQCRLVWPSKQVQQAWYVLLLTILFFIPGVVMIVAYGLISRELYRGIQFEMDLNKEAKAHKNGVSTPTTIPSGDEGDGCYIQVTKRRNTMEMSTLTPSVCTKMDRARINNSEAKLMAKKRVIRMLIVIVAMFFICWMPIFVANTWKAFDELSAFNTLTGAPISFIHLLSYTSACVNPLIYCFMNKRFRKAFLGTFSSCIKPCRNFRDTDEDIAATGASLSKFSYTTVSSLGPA
Sequence of human wild-type CCK-B receptor (P32239 whole entry): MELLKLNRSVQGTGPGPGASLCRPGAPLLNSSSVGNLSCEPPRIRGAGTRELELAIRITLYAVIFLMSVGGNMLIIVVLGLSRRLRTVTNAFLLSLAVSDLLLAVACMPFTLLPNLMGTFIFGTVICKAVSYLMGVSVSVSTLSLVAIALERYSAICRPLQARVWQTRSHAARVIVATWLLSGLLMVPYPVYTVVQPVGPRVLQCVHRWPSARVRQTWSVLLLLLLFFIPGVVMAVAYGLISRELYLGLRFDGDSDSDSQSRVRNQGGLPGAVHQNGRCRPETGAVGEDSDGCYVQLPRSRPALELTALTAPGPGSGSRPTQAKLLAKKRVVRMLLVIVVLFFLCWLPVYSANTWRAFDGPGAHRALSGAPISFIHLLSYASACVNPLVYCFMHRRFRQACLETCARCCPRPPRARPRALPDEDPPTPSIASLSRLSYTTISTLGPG

Row | Compound | Ki [1] [nM] | intrinsic activity / functional classification [3] | Ratio (Wild-type/Mutant) of Ki [4] | Ki [4] [nM] | intrinsic activity / functional classification ([2]; wild-type receptor) | other results
1 | azabicyclo[3.2.2]nonane benzodiazepine [L-740,093 S] | 16 ± 1.4 | almost a full agonist | 1.22 | 19.5 ± 1.5 |  | efficacy compared with CCK-8s (inositol phosphate) ([2]; human wild-type receptor): 25%
2 | CCK-8s |  |  |  |  |  | CCK-8s stimulated (% human basal) inositol phosphate (rat CCK-A): 684 % human basal; CCK-8s stimulated (% human basal) inositol phosphate (Xenopus CCK receptor): 442 % human basal; change in free cytosolic calcium [Ca2+]i [5]: marked increase in free cytosolic calcium
3 | C[C@](Cc1c[nH]c2ccccc12)(NC(=O)OC1C2CC3CC(C2)CC1C3)C(=O)NC[C@H](NC(=O)/C=C/C(=O)O)c1ccccc1 (stereo partly drawn) [PD 136,450] | 0.59 ± 0.12 | almost full agonists | 1.68 | 0.99 ± 0.1 | partial agonists | Ratio (Wild-type/Mutant) of signaling potencies [2]: 0.62; IC50 ([2]; wild-type receptor): 0.36 nM; IC50 [3]: 0.58 nM
4 | azabicyclo[3.2.2]nonane benzodiazepine [L-740,093 R] | 0.18 ± 0.04 | reduces the basal activity of the constitutively active receptor almost to wild-type levels | 1.06 | 0.19 ± 0.02 |  | 
5 | Cc1cccc(NC(=O)N[C@@H]2N=C(c3ccccc3)c3ccccc3N(C)C2=O)c1 [L-365,260] |  |  |  |  | barely detectable, yet significant, increase in inositol phosphate production | efficacy compared to the full agonist CCK-8s (inositol phosphate) ([3]; 325L→E constitutively active mutant): 62%
6 | CC1(C)[C@H]2CC[C@@]1(C)[C@H](OC(=O)N[C@](C)(Cc1c[nH]c3ccccc13)C(=O)NC[C@H](NC(=O)CCC(=O)O)c1ccccc1)C2 [PD 135,158] | 1.01 ± 0.19 | almost full agonists | 2.23 | 2.25 ± 0.61 | partial agonists | intrinsic activity at mutant versus wild-type CCK-A receptor [6]: significantly increased; Ratio (Wild-type/Mutant) of signaling potencies [2]: 1.04; IC50 ([2]; wild-type receptor): 1.05 nM; IC50 [3]: 1.01 nM
7 | Cc1cccc(NC(=O)N[C@@H]2N=C(c3ccccc3)c3ccccc3N(CC(=O)c3ccccc3C)C2=O)c1 [YM022] | 0.08 ± 0.01 | almost no intrinsic activity; also recorded: weak inverse agonist | 0.88 | 0.07 ± 0.01 | almost no intrinsic activity | pA2, block of CCK-8s induced inositol phosphate production ([2]; wild-type receptor, agonist CCK-8s): 9.78; pA2, block of CCK-8s induced inositol phosphate production ([3]; constitutively active receptor, agonist CCK-8s): 9.37; pA2, block of L-740,093 S induced inositol phosphate production ([3]; constitutively active receptor, agonist L-740,093 S (FIG. 4)): 9.54

Reference: patent US6376198B1, “Assay for non-peptide agonists to peptide hormone receptors” (New England Medical Center Hospitals, Inc., priority 1995, dated 2002)
